Test results published in ChEMBL document CHEMBL4020848, “Antibacterial Activity Affected by the Conformational Flexibility in Glycine-Lysine Based α-Helical Antimicrobial Peptides” (J Med Chem, 2018).
Converted amounts (≈) assume the structure as drawn. The source made the active and inactive calls. No cut-off for these calls is given here.

Tests used:
Escherichia coli [1] = experiment: Bactericidal activity against Escherichia coli ATCC 25922 after 18 hrs by microdilution method; type: functional; settings: ATCC 25922, 18 h, read-out: MBC=>99.9
Escherichia coli [2] = experiment: Induction of membrane permeabilization in Escherichia coli ATCC 25922 assessed as loss of pili/flagella at MBC after 1 hr by atomic force microscopic method; type: functional
Escherichia coli [3] = experiment: Induction of membrane permeabilization in Escherichia coli ATCC 25922 assessed as loss of pili/flagella at MIC after 1 hr by atomic force microscopic method; type: functional
[4] = Cytotoxicity against human peripheral blood leukocytes assessed as cell viability at 0.18 uM after 24 hrs by acridine orange/ethidium bromide staining based fluorescence microscopic method relative to control; parameters: species or system Leukocyte; settings: read-out: Activity
Escherichia coli [5] = experiment: Antibacterial activity against Escherichia coli ATCC 25922 after 18 hrs by microdilution method; type: functional; settings: ATCC 25922, 18 h
Escherichia coli [6] = experiment: Antibacterial activity against clinical isolates of Escherichia coli after 18 hrs by microdilution method; type: functional
Acinetobacter baumannii [7] = experiment: Antibacterial activity against Acinetobacter baumannii ATCC 19606 after 18 hrs by microdilution method; type: functional; settings: ATCC 19606 = CIP 70.34 = JCM 6841, 18 h
Acinetobacter baumannii [8] = experiment: Antibacterial activity against clinical isolates of Acinetobacter baumannii after 18 hrs by microdilution method; type: functional
Klebsiella pneumoniae [9] = experiment: Antibacterial activity against Klebsiella pneumoniae ATCC 13883 after 18 hrs by microdilution method; type: functional; settings: ATCC 13883, 18 h
Klebsiella pneumoniae [10] = experiment: Antibacterial activity against clinical isolates of Klebsiella pneumoniae after 18 hrs by microdilution method; type: functional
Pseudomonas aeruginosa [11] = experiment: Antibacterial activity against Pseudomonas aeruginosa ATCC 27853 after 18 hrs by microdilution method; type: functional; settings: ATCC 27853, 18 h
Pseudomonas aeruginosa [12] = experiment: Antibacterial activity against clinical isolates of Pseudomonas aeruginosa after 18 hrs by microdilution method; type: functional
Staphylococcus aureus [13] = experiment: Antibacterial activity against Staphylococcus aureus ATCC 25923 after 18 hrs by microdilution method; type: functional; settings: ATCC 25923, 18 h
Staphylococcus aureus [14] = experiment: Antibacterial activity against clinical isolates of Staphylococcus aureus after 18 hrs by microdilution method; type: functional
Escherichia coli [15] = experiment: Bactericidal activity against clinical isolates of Escherichia coli after 18 hrs by microdilution method; type: functional; settings: read-out: MBC=>99.9
Acinetobacter baumannii [16] = experiment: Bactericidal activity against Acinetobacter baumannii ATCC 19606 after 18 hrs by microdilution method; type: functional; settings: ATCC 19606 = CIP 70.34 = JCM 6841, 18 h, read-out: MBC=>99.9
Acinetobacter baumannii [17] = experiment: Bactericidal activity against clinical isolates of Acinetobacter baumannii after 18 hrs by microdilution method; type: functional; settings: read-out: MBC=>99.9
Klebsiella pneumoniae [18] = experiment: Bactericidal activity against Klebsiella pneumoniae ATCC 13883 after 18 hrs by microdilution method; type: functional; settings: ATCC 13883, 18 h, read-out: MBC=>99.9
Klebsiella pneumoniae [19] = experiment: Bactericidal activity against clinical isolates of Klebsiella pneumoniae after 18 hrs by microdilution method; type: functional; settings: read-out: MBC=>99.9
Pseudomonas aeruginosa [20] = experiment: Bactericidal activity against Pseudomonas aeruginosa ATCC 27853 after 18 hrs by microdilution method; type: functional; settings: ATCC 27853, 18 h, read-out: MBC=>99.9
Pseudomonas aeruginosa [21] = experiment: Bactericidal activity against clinical isolates of Pseudomonas aeruginosa after 18 hrs by microdilution method; type: functional; settings: read-out: MBC=>99.9
Staphylococcus aureus [22] = experiment: Bactericidal activity against Staphylococcus aureus ATCC 25923 after 18 hrs by microdilution method; type: functional; settings: ATCC 25923, 18 h, read-out: MBC=>99.9
Staphylococcus aureus [23] = experiment: Bactericidal activity against clinical isolates of Staphylococcus aureus after 18 hrs by microdilution method; type: functional; settings: read-out: MBC=>99.9
[24] = Selectivity index, ratio of HC50 for human RBC to MIC for Escherichia coli ATCC 25922
[25] = Selectivity index, ratio of HC50 for human RBC to MIC for Escherichia coli
[26] = Selectivity index, ratio of HC50 for human RBC to MIC for Acinetobacter baumannii ATCC 19606
[27] = Selectivity index, ratio of HC50 for human RBC to MIC for Acinetobacter baumannii
[28] = Selectivity index, ratio of HC50 for human RBC to MIC for Klebsiella pneumoniae ATCC 13883
[29] = Selectivity index, ratio of HC50 for human RBC to MIC for Klebsiella pneumoniae
[30] = Selectivity index, ratio of HC50 for human RBC to MIC for Pseudomonas aeruginosa ATCC 27853
[31] = Selectivity index, ratio of HC50 for human RBC to MIC for Pseudomonas aeruginosa
[32] = Selectivity index, ratio of HC50 for human RBC to MIC for Staphylococcus aureus ATCC 25923
[33] = Selectivity index, ratio of HC50 for human RBC to MIC for Staphylococcus aureus
Escherichia coli [34] = experiment: Growth inhibition of Escherichia coli ATCC 25922 measured every 10 mins for 4 hrs; type: functional
Staphylococcus aureus [35] = experiment: Growth inhibition of Staphylococcus aureus ATCC 25923 measured every 10 mins for 4 hrs; type: functional
Escherichia coli [36] = experiment: Induction of membrane permeabilization in Escherichia coli ATCC 25922 assessed as bleb formation at MIC after 1 hr by atomic force microscopic method; type: functional
Escherichia coli [37] = experiment: Induction of membrane permeabilization in Escherichia coli ATCC 25922 assessed as surface indentations at MIC after 1 hr by atomic force microscopic method; type: functional
Escherichia coli [38] = experiment: Induction of membrane permeabilization in Escherichia coli ATCC 25922 assessed as formation of pores/cavities at MIC after 1 hr by atomic force microscopic method; type: functional
Escherichia coli [39] = experiment: Induction of membrane permeabilization in Escherichia coli ATCC 25922 assessed as massive cell disruption/collapse at MBC after 1 hr by atomic force microscopic method; type: functional
Escherichia coli [40] = experiment: Induction of membrane permeabilization in Escherichia coli ATCC 25922 assessed as incipient damage at 0.25 uM after 1 hr by atomic force microscopic method; type: functional
Escherichia coli [41] = experiment: Induction of membrane permeabilization in Escherichia coli ATCC 25922 assessed as massive damage at 0.5 to 1 uM after 1 hr by atomic force microscopic method; type: functional
[42] = Genotoxicity in human peripheral blood leukocytes assessed as DNA damage up to 100 uM up to 24 hrs by alkaline comet assay; type: toxicity, cell-based; settings: leukocyte
[43] = Cytotoxicity against human peripheral blood leukocytes assessed as cell viability at 50 uM after 4 hrs by acridine orange/ethidium bromide staining based fluorescence microscopic method relative to control; parameters: species or system Leukocyte; settings: read-out: Activity
[44] = Cytotoxicity against human peripheral blood leukocytes assessed as cell viability at 50 uM after 24 hrs by acridine orange/ethidium bromide staining based fluorescence microscopic method relative to control; parameters: species or system Leukocyte; settings: read-out: Activity
[45] = Cytotoxicity against human peripheral blood leukocytes assessed as cell viability at 100 uM after 4 hrs by acridine orange/ethidium bromide staining based fluorescence microscopic method relative to control; parameters: species or system Leukocyte; settings: read-out: Activity
[46] = Cytotoxicity against human peripheral blood leukocytes assessed as cell viability at 100 uM after 24 hrs by acridine orange/ethidium bromide staining based fluorescence microscopic method relative to control; parameters: species or system Leukocyte; settings: read-out: Activity
Escherichia coli [47] = experiment: Induction of membrane permeabilization in Escherichia coli ATCC 25922 assessed as propidium iodide uptake preincubated up to 60 mins followed by propidium iodide addition by flow cytometry; type: functional

For `CC[C@H](C)[C@H](NC(=O)CN)C(=O)NCC(=O)N[C@@H](C)C(=O)N[C@H](C(=O)N[C@@H](CC(C)C)C(=O)N[C@@H](CCCCN)C(=O)N[C@H](C(=O)N[C@@H](CC(C)C)C(=O)N[C@H](C(=O)N[C@H](C(=O)NCC(=O)N[C@@H](CC(C)C)C(=O)N1CCC[C@H]1C(=O)N[C@@H](C)C(=O)N[C@@H](CC(C)C)C(=O)N[C@H](C(=O)N[C@@H](CO)C(=O)N[C@@H](Cc1c[nH]c2ccccc12)C(=O)N[C@H](C(=O)N[C@@H](CCCCN)C(=O)N[C@@H](CCCNC(=N)N)C(=O)N[C@@H](CCCCN)C(=O)N[C@@H](CCCNC(=N)N)C(=O)N[C@@H](CCC(N)=O)C(=O)N[C@@H](CCC(N)=O)C(N)=O)[C@@H](C)CC)[C@@H](C)CC)[C@@H](C)O)[C@@H](C)O)C(C)C)C(C)C` [MELITTIN], the MBC (Escherichia coli [1]) was 20 µM (≈ 56.9 µg/mL), the Activity (Escherichia coli [2]) was “Active” and the Activity (Escherichia coli [3]) was “Active”. The viability at 24 h, 0.18 µM [4] was 60%.
H-KIAKGALKALKIAKVALKAL-NH2 showed an MIC (Escherichia coli [5]) of 0.25 to 0.5 µM, an MIC (Escherichia coli [6]) of 4 µM and an MIC (Acinetobacter baumannii [7]) of 0.5 to 1 µM. The MIC (Acinetobacter baumannii [8]) was 0.5 µM, the MIC (Klebsiella pneumoniae [9]) was 2 µM and the MIC (Klebsiella pneumoniae [10]) was 4 µM. It also gave an MIC (Pseudomonas aeruginosa [11]) of 2 µM, an MIC (Pseudomonas aeruginosa [12]) of 2 to 4 µM and an MIC (Staphylococcus aureus [13]) of 8 to 16 µM. It also gave an MIC (Staphylococcus aureus [14]) of 4 to 8 µM, an MBC (Escherichia coli [1]) of 0.5 to 1 µM and an MBC (Escherichia coli [15]) of 8 µM. It also gave an MBC (Acinetobacter baumannii [16]) of 1 µM, an MBC (Acinetobacter baumannii [17]) of 1 µM and an MBC (Klebsiella pneumoniae [18]) of 2 µM. The MBC (Klebsiella pneumoniae [19]) was 8 µM, the MBC (Pseudomonas aeruginosa [20]) was 4 µM and the MBC (Pseudomonas aeruginosa [21]) was 4 µM. For the same compound, the MBC (Staphylococcus aureus [22]) was 8 to 16 µM, the MBC (Staphylococcus aureus [23]) was 8 µM and the Selectivity Index [24] was 60 to 120. The Selectivity Index [25] was 7, the Selectivity Index [26] was 30 to 60 and the Selectivity Index [27] was 60. The Selectivity Index [28] was 15, the Selectivity Index [29] was 7 and the Selectivity Index [30] was 15. It also gave a Selectivity Index [31] of 7 to 15, a Selectivity Index [32] of 2 to 4 and a Selectivity Index [33] of 4 to 8. The IC50 (Escherichia coli [34]) was 350 nM, the IC50 (Staphylococcus aureus [35]) was 800 nM and the Activity (Escherichia coli [36]) was “Active”. For the same compound, the Activity (Escherichia coli [37]) was “Active”, the Activity (Escherichia coli [38]) was “Active” and the Activity (Escherichia coli [39]) was “Active”. The Activity (Escherichia coli [2]) was “Active”, the Activity (Escherichia coli [40]) was “Active” and the Activity (Escherichia coli [41]) was “Active”. For the same compound, the Activity [42] was “Non-Toxic”, the viability at 4 h, 50 µM [43] was 92% and the viability at 24 h, 50 µM [44] was 92%. For the same compound, the viability at 4 h, 100 µM [45] was 89%, the viability at 24 h, 100 µM [46] was 83% and the IC50 (Escherichia coli [47]) was 500 nM.
